What was measured:
[1] = target: T1, chymotrypsin (Bos taurus, UniProt P00766); experiment: Chymotrypsin inhibition, fluorogenic peptide substrates; format: biochemical, bovine
T1 construct: Chymotrypsin, from bovine plasma; from tissue
Procedure: (§1) The following Examples serve to illustrate the present invention, and should not be construed as limiting.
(§2) Trypsin, from bovine pancreas, was dissolved in Hanks Balanced Salt Solution (HBSS) at a concentration of 0.02 mg/ml. The substrate Z-L-arginine 4-methyl-7coumarinylamide was dissolved in HBSS at a concentration of 0.01 mg/ml, and sodium chenodeoxycholate was dissolved at a range of concentrations starting at 100 mg/ml. The assay was conducted in the wells of 96-well black plastic microplates, in which 20:1 of enzyme solution and 60:1 of bile salt were mixed together, and then 20:1 of substrate was added, with mixing, at the start of the reaction, which proceeded at room temperature for up to 30 minutes, with measurement at various intermediate time points.
Example 1 was repeated but with chymotrypsin as the protease (instead of trypsin) and with glutaryl-L-phenylalanine 4-methyl-7-coumarinylamide as the substrate.
Example 2 was repeated but with sodium deoxycholate instead of sodium chenodeoxycholate.
Chymotrypsin, from bovine plasma, was dissolved in HBSS at a concentration of 0.02 mg/ml. The substrate Boc-β-benzyl-Asp-Pro-Arg-7-amido-4-methylcoumarin was dissolved in HBSS at a concentration of 0.01 mg/ml, and sodium chenodeoxycholate was dissolved at 100 mg/ml. The assay was conducted in the wells of 96-well clear plastic microplates, in which 20:1 of enzyme solution and 60:1 of bile salt were mixed together, and then 20:1 of substrate was added, with mixing, at the start of the reaction, which proceeded at 37° C. for up to 30 minutes, with measurement at various intermediate time points.

[2] = target: T2, Trypsin (Bos taurus, UniProt P00760); experiment: Trypsin inhibition, fluorogenic substrate Z-L-arginine 4-methyl-7-coumarinylamide; format: biochemical, bovine; conditions: up to 30 minutes
T2 construct: Trypsin, from bovine pancreas; from tissue; host or cells: bovine pancreas
T2 sequence (P00760 24-246): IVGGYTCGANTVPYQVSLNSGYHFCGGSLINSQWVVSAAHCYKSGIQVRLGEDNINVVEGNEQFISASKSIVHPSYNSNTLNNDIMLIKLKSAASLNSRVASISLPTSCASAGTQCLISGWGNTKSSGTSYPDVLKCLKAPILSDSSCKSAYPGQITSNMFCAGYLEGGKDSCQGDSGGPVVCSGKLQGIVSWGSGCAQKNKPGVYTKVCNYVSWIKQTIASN
Procedure: as §1, §2
Example 1 was repeated but with sodium deoxycholate instead of sodium chenodeoxycholate.
as §2, with “HBSS” for “Hanks Balanced Salt Solution (HBSS)”, “4-methyl-7-coumarinylamide” for “4-methyl-7coumarinylamide”, “ursodeoxycholate” for “chenodeoxycholate”, “50” for “100”, “100:1” for “60:1”, “37° C.” for “room temperature”
as §2, with “HBSS” for “Hanks Balanced Salt Solution (HBSS)”, “4-methyl-7-coumarinylamide” for “4-methyl-7coumarinylamide”, “glycodeoxycholate” for “chenodeoxycholate”, “100:1” for “60:1”, “37° C.” for “room temperature”
Example 5 was repeated but with sodium glycochenodeoxycholate instead of sodium ursodeoxycholate.
Example 6 was repeated but with sodium glycocholate instead of sodium glycodeoxycholate.
Example 9 was repeated but with trypsin (instead of chymotrypsin) from bovine plasma, Z-L-arginine 4-methyl-7-coumarinylamide as the substrate and metformin as the inhibitor.
Trypsin, from bovine pancreas, was dissolved in HBSS at a concentration of 0.02 mg/ml. The substrate Z-L-arginine 4-methyl-7-coumarinylamide was dissolved in HBSS at a concentration of 0.01 mg/ml, and phenformin was dissolved at 100 mg/ml. The assay was conducted in the wells of 96-well black plastic microplates, in which 20:1 of enzyme solution and 100:1 of bile salt were mixed together, and then 20:1 of substrate was added, with mixing, at the start of the reaction, which proceeded at 37° C. for up to 30 minutes, with measurement at various intermediate time points.

[3] = system: gut proteases; experiment: Inhibition of gut proteases, general statement; format: biochemical; conditions: see FIGS. 5 and 6
[4] = target: T3, Thrombin (Bos taurus, UniProt P00735); experiment: Thrombin inhibition, chromogenic substrate N-Benzoyl-Phe-Val-Arg-p-nitroanilide; format: biochemical; conditions: Examples 10, 11; thrombin from bovine plasma; bile salt from 100 mg/ml; 37° C., up to 30 minutes; FIGS. 13, 14
T3 construct: Thrombin, from bovine plasma; from tissue; host or cells: bovine plasma
Procedure: Thrombin, from bovine plasma, was dissolved in HBSS at a concentration of 0.5 mg/ml. The substrate N-Benzoyl-Phe-Val-Arg-p-nitroanilide hydrochloride was dissolved in HBSS at a concentration of 0.5 mg/ml, and sodium chenodeoxycholate was dissolved at a range of concentrations starting at 100 mg/ml. The assay was conducted in the wells of 96-well clear plastic microplates, in which 50:1 of enzyme solution and 100:1 of bile salt were mixed together, and then 50:1 of substrate was added, with mixing, at the start of the reaction, which proceeded at 37° C. for up to 30 minutes, with measurement at various intermediate time points. The progress of the enzymatic reaction was assessed by measuring the appearance of reaction product (p-nitroaniline) colorimetrically using a wavelength of 405 nm on an Anthos reader 2001 from Anthos Labtec Instruments.
Example 10 was repeated but with sodium deoxycholate instead of sodium chenodeoxycholate.

[5] = Example 4, substrate glutaryl-L-phenylalanine 4-methyl-7-coumarinylamide, bile salt 25 mg/ml, FIG. 6
[6] = Example 3, bile salt 25 mg/ml, room temperature, FIG. 5
[7] = Examples 5-8, 13, trypsin from bovine pancreas, 37° C., FIGS. 7-11, 16

Compound: C[C@H](CCC(=O)O)[C@H]1CC[C@H]2[C@@H]3[C@H](O)C[C@@H]4C[C@H](O)CC[C@]4(C)[C@H]3C[C@H](O)[C@]12C [cholate, cholic acid]
- Inhibition of chymotrypsin activity over time [1, 5]: do not inhibit chymotrypsin
- Inhibition of trypsin activity over time [2, 6]: do not inhibit trypsin
- Inhibitory effect on gut proteases [3]: do not have this inhibitory effect

Compound: C[C@H](CCC(=O)O)[C@H]1CC[C@H]2[C@@H]3[C@@H](O)C[C@@H]4C[C@H](O)CC[C@]4(C)[C@H]3CC[C@]12C [ursodeoxycholate, sodium ursodeoxycholate]
- Inhibition of trypsin activity over time [2, 7]: Inhibition of enzyme activity

Compound: CN(C)C(=N)N=C(N)N [metformin]
- Inhibition of trypsin activity over time ([2]; Example 12, trypsin from bovine plasma, 37° C., FIG. 15): Inhibition of enzyme activity

Compound: C[C@H](CCC(=O)[O-])[C@H]1CC[C@H]2[C@@H]3CC[C@@H]4C[C@H](O)CC[C@]4(C)[C@H]3C[C@H](O)[C@]12C.[Na+] [deoxycholate, sodium deoxycholate]
- Inhibition of chymotrypsin activity over time [1, 5]: Inhibition of enzyme activity
- Inhibition of trypsin activity over time [2, 6]: Inhibition of enzyme activity
- Inhibition of thrombin activity over time [4]: Inhibition of enzyme activity

Compound: C[C@H](CCC(=O)NCCS(=O)(=O)O)[C@H]1CC[C@H]2[C@@H]3CC[C@@H]4C[C@H](O)CC[C@]4(C)[C@H]3C[C@H](O)[C@]12C [taurodeoxycholate, taurodeoxycholic acid]
- Inhibition of trypsin activity over time [2, 6]: do not inhibit trypsin
- Inhibitory effect on gut proteases [3]: do not have this inhibitory effect

Compound: C[C@H](CCC(=O)NCC(=O)O)[C@H]1CC[C@H]2[C@@H]3[C@H](O)C[C@@H]4C[C@H](O)CC[C@]4(C)[C@H]3CC[C@]12C [glycochenodeoxycholate, sodium glycochenodeoxycholate]
- Inhibition of trypsin activity over time [2, 7]: Inhibition of enzyme activity

Compound: C[C@H](CCC(=O)O)[C@H]1CC[C@H]2[C@@H]3[C@H](O)C[C@@H]4C[C@H](O)CC[C@]4(C)[C@H]3CC[C@]12C [chenodeoxycholate, sodium chenodeoxycholate]
- Inhibition of chymotrypsin activity over time and dose response ([1]; Example 2, substrate glutaryl-L-phenylalanine 4-methyl-7-coumarinylamide, bile salt from 100 mg/ml, FIGS. 3, 4): Inhibition of enzyme activity
- Inhibition of chymotrypsin activity over time ([1]; Example 9, chymotrypsin from bovine plasma, substrate Boc-β-benzyl-Asp-Pro-Arg-7-amido-4-methylcoumarin, 100 mg/ml, 37° C., FIG. 12): Inhibition of enzyme activity
- Inhibition of trypsin activity over time and dose response ([2]; Example 1, trypsin from bovine pancreas, bile salt from 100 mg/ml, room temperature, FIGS. 1, 2): Inhibition of enzyme activity
- Inhibition of thrombin activity over time [4]: Inhibition of enzyme activity

Compound: C[C@H](CCC(=O)NCC(=O)[O-])[C@H]1CC[C@H]2[C@@H]3CC[C@@H]4C[C@H](O)CC[C@]4(C)[C@H]3C[C@H](O)[C@]12C.[Na+] [glycodeoxycholate, sodium glycodeoxycholate]
- Inhibition of trypsin activity over time [2, 7]: Inhibition of enzyme activity

Compound: C[C@H](CCC(=O)NCCS(=O)(=O)O)[C@H]1CC[C@H]2[C@@H]3[C@H](O)C[C@@H]4C[C@H](O)CC[C@]4(C)[C@H]3C[C@H](O)[C@]12C [taurocholate, taurocholic acid]
- Inhibition of chymotrypsin activity over time [1, 5]: do not inhibit chymotrypsin
- Inhibition of trypsin activity over time [2, 6]: do not inhibit trypsin
- Inhibitory effect on gut proteases [3]: do not have this inhibitory effect

Compound: [H]/N=C(/N)N/C(=N/[H])NCCc1ccccc1 [phenformin]
- Inhibition of trypsin activity over time [2, 7]: Inhibition of enzyme activity

Compound: C[C@H](CCC(=O)NCC(=O)O)[C@H]1CC[C@H]2[C@@H]3[C@H](O)C[C@@H]4C[C@H](O)CC[C@]4(C)[C@H]3C[C@H](O)[C@]12C [glycocholate, sodium glycocholate]
- Inhibition of trypsin activity over time [2, 7]: Inhibition of enzyme activity

Source: patent publication US9913850B2, “Bile acids and biguanides as protease inhibitors for preserving the integrity of peptides in the gut” (AXCESS LIMITED, priority 2008, dated 2018)
